Here are results for three compounds from patent publication US10626115B2, “Fused pyrimidinone and triazinone derivatives containing bridged nitrogen, their process of preparation and their therapeutic uses as antifungal and/or antiparasitic agents” (UNIVERSITE DE NANTES, priority 2015, dated 2020).

Data set [1] concerns A. fumigatus susceptible strain ASFU38A. In words: Antifungal susceptibility, spectrofluorimetric microdilution, ASFU38A. Type of data set: cell-based, Aspergillus fumigatus. The following applies: Aspergillus fumigatus, read-out: MIC values ASFU38A. The method, then:
(§1) Eleven strains of A. fumigatus with various itraconazole susceptibility were used: • Five susceptible strains: ASFU7, ASFU35A, ASFU38A, ASFU76 and ASFU78. • Six itraconazole-resistant strains: ASFU77 (erg11 mutation), ASFU13, ASFU17, ASFU19, ASFU20, ASFU23.
(§2) Antifungal susceptibility was evaluated with a spectrofluorimetric microdilution method. MIC was the concentration that was able to inhibit 80% of fluorescence measured in the control wells.

For data set [2], the system named is A. fumigatus susceptible strain ASFU78. In words: Antifungal susceptibility, spectrofluorimetric microdilution, ASFU78. Type of data set: cell-based, Aspergillus fumigatus. To be noted: Aspergillus fumigatus, read-out: MIC values ASFU78. As to the method: as §1, §2
In general terms: Broth dilution looks for growth in wells or tubes with falling amounts of substance.

For data set [3], the system named is fluconazole-resistant C. albicans strain CAAL117 (erg11 mutations+voriconazole-resistant). In words: microbe, parasite or virus in culture. To be noted: for MIC: Candida albicans, read-out: MIC values CAAL117; for fold more active than voriconazole against CAAL117: compared with voriconazole. Type of data set: cell-based. The method, then:
(§3) Eight strains of Candida spp. with various azoles-susceptibilities were used: • One fluconazole-susceptible C. albicans strain: CAAL93 • Two fluconazole-resistant C. albicans strains: CAAL111 (efflux pump) and CAAL117 (erg11 mutations+voriconazole-resistant) • five fluconazole-resistant Candida non albicans strains: C. krusei (CAKR7, CAKR8), C. glabrata (CAGL2), C. parapsilosis s.l. (CAPA1, CAPA2).
(§4) Antifungal susceptibility was evaluated with a spectrofluorimetric microdilution method.

The subject of data set [4] is fluconazole-resistant C. krusei (CAKR8). In words: microbe, parasite or virus in culture. Type of data set: cell-based. The following applies: Pichia kudriavzevii, read-out: MIC values CAKR8. The method, then:
as §3, §4

For data set [5], the system named is fluconazole-resistant C. glabrata (CAGL2). The experiment in a line: microbe, parasite or virus in culture. The data set is classed as cell-based. To be noted: Nakaseomyces glabratus, read-out: MIC values CAGL2. The method, then: as §3, §4
The subject of data set [6] is fluconazole-resistant C. krusei (CAKR7). The experiment in a line: microbe, parasite or virus in culture. Type of data set: cell-based. To be noted: Pichia kudriavzevii, read-out: MIC values CAKR7. The method, then: as §3, §4
For data set [7], the system named is fluconazole-resistant C. albicans strain CAAL111 (efflux pump). The experiment in a line: microbe, parasite or virus in culture. To be noted: Candida albicans, read-out: MIC values CAAL111. Type of data set: cell-based. The method, then:
as §3, §4

Data set [8] concerns A. fumigatus itraconazole-resistant strain ASFU19. In words: Antifungal susceptibility, spectrofluorimetric microdilution, ASFU19. The data set is classed as cell-based, Aspergillus fumigatus. The following applies: Aspergillus fumigatus, read-out: MIC values ASFU19. The method, then:
as §1, §2

Data set [9] deals with A. fumigatus itraconazole-resistant strain ASFU17. The experiment in a line: Antifungal susceptibility, spectrofluorimetric microdilution, ASFU17. The data set is classed as cell-based, Aspergillus fumigatus. The following applies: Aspergillus fumigatus, read-out: MIC values ASFU17. As to the method:
as §1, §2

In data set [10] the test system is A. fumigatus susceptible strain ASFU7. In words: Antifungal susceptibility, spectrofluorimetric microdilution, ASFU7. To be noted: Aspergillus fumigatus, read-out: MIC values ASFU7. Type of data set: cell-based, Aspergillus fumigatus. As to the method:
as §1, §2

In data set [11] the test system is A. fumigatus itraconazole-resistant strain ASFU13. The experiment in a line: Antifungal susceptibility, spectrofluorimetric microdilution, ASFU13. The data set is classed as cell-based, Aspergillus fumigatus. To be noted: for MIC: Aspergillus fumigatus, read-out: MIC values ASFU13. As to the method: as §1, §2
Data set [12] has as its system A. fumigatus itraconazole-resistant strain ASFU20. In words: Antifungal susceptibility, spectrofluorimetric microdilution, ASFU20. Type of data set: cell-based, Aspergillus fumigatus. To be noted: for MIC: Aspergillus fumigatus, read-out: MIC values ASFU20. The method, then:
as §1, §2

For data set [13], the system named is A. fumigatus susceptible strain ASFU76. In words: Antifungal susceptibility, spectrofluorimetric microdilution, ASFU76. The data set is classed as cell-based, Aspergillus fumigatus. To be noted: Aspergillus fumigatus, read-out: MIC values ASFU76. The method, then: as §1, §2
Data set [14] concerns A. fumigatus susceptible strain ASFU35A. In words: Antifungal susceptibility, spectrofluorimetric microdilution, ASFU35A. The data set is classed as cell-based, Aspergillus fumigatus. The following applies: Aspergillus fumigatus, read-out: MIC values ASFU35A. As to the method: as §1, §2
Data set [15] deals with A. fumigatus itraconazole-resistant strain ASFU77 (erg11 mutation). In words: Antifungal susceptibility, spectrofluorimetric microdilution, ASFU77. To be noted: for MIC: Aspergillus fumigatus, read-out: MIC values ASFU77. Type of data set: cell-based, Aspergillus fumigatus. The method, then: as §1, §2
Data set [16] concerns A. fumigatus itraconazole-resistant strain ASFU23. The experiment in a line: Antifungal susceptibility, spectrofluorimetric microdilution, ASFU23. The data set is classed as cell-based, Aspergillus fumigatus. The following applies: for MIC: Aspergillus fumigatus, read-out: MIC values ASFU23. The method, then:
as §1, §2

Data set [17] relates to fluconazole-susceptible C. albicans strain: CAAL93. In words: Antifungal susceptibility, spectrofluorimetric microdilution, CAAL93. The data set is classed as cell-based. To be noted: Candida albicans, read-out: MIC values CAAL93. As to the method: as §3, §4
The test system of data set [18] is promastigote stage of a Leishmania mexicana strain. The experiment in a line: Anti-Trypanosomatidae activity, promastigote stage, spectrofluorimetric microdilution. Type of data set: cell-based. To be noted: Leishmania mexicana; promastigote stage; 50% of control growth; read-out: L. mexicana (IC50 μM). As to the method: Compounds were evaluated on the promastigote stage of a Leishmania mexicana strain using a spectrofluorimetric microdilution method. Inhibitory concentration 50 (IC50) was the concentration that inhibited 50% of the control growth.

Converted amounts (≈) assume the structure as drawn.

As for `C[C@@H](n1ncc2cc(-c3ccc(Cl)cc3)cn2c1=O)[C@](O)(Cn1cncn1)c1ccc(F)cc1F` [Compound 48, 7-(4-Chlorophenyl)-3-[(1R,2R)-2-(2,4-difluorophenyl)-2-hydroxy-1-methyl-3-(1,2,4-triazol-1-yl)propyl]-3H-pyrrolo[1,2-d][1,2,4]triazin-4-one], the melting point is 204 to 205 °C. The MIC in [1] came to 6.64 ± 1.1 µg/mL (≈ 13.4 µM). Also, in data set [2], the MIC was 6.26 ± 0.73 µg/mL (≈ 12.6 µM). For the same compound, in data set [3], the MIC was 0.014 ± 0.001 µg/mL (≈ 0.0282 µM) and the “fold more active than voriconazole against CAAL117” value stood at 100 fold. In addition, the MIC in data set [4] was 0.079 µg/mL (≈ 0.159 µM). Further, the MIC in data set [5] came to 0.061 ± 0.008 µg/mL (≈ 0.123 µM). For the same compound, the MIC in [6] is 0.019 ± 0.001 µg/mL (≈ 0.0382 µM). Moreover, the MIC in data set [7] came to 0.018 ± 0.005 µg/mL (≈ 0.0362 µM). Also, in [8], the MIC is more than 49 µg/mL. Moreover, the MIC in data set [9] is more than 49 µg/mL. The MIC in [10] was 6.07 ± 0.05 µg/mL (≈ 12.2 µM). Further, in data set [11], the “activity against ITRA-resistant isolate ASFU13, in words” value is “active” and the MIC stood at 2.53 µg/mL (≈ 5.09 µM). In data set [12], the “activity against ITRA-resistant isolate ASFU20, in words” value is given as “active” and the MIC is 2.51 µg/mL (≈ 5.05 µM). Moreover, the MIC in data set [13] is 6.21 ± 0.18 µg/mL (≈ 12.5 µM). The MIC in data set [14] was determined as 6.11 ± 0.85 µg/mL (≈ 12.3 µM). In addition, in data set [15], the “MIC values against ITRA-resistant isolate carrying M220T mutation (ASFU77), in words” value is “in the micromolar range” and the MIC came to 9.27 ± 1.05 µg/mL (≈ 18.7 µM). Moreover, in data set [16], the “activity against ITRA-resistant isolate ASFU23, in words” value is recorded as “active” and the MIC turned out to be 2.48 µg/mL (≈ 4.99 µM). Besides, the MIC in [17] is less than 0.001 µg/mL.

With `C[C@@H](n1ncc2cc(-c3ccc([N+](=O)[O-])cc3)cn2c1=O)[C@](O)(Cn1cncn1)c1ccc(F)cc1F` [Compound 50, 3-[(1R,2R)-2-(2,4-Difluorophenyl)-2-hydroxy-1-methyl-3-(1,2,4-triazol-1-yl)propyl]-7-(4-nitrophenyl)-3H-pyrrolo[1,2-d][1,2,4]triazin-4-one], the melting point is 130 to 131 °C. Further, the MIC in [1] was determined as 8.86 µg/mL (≈ 17.5 µM). Further, the MIC in [2] stood at 6.4 ± 1.07 µg/mL (≈ 12.6 µM). In data set [3], the MIC stood at 0.018 ± 0.001 µg/mL (≈ 0.0355 µM) and the “fold more active than voriconazole against CAAL117” value came out at 100 fold. Also, in [4], the MIC is 0.039 ± 0.027 µg/mL (≈ 0.0769 µM). In data set [5], the MIC stood at 0.074 ± 0.038 µg/mL (≈ 0.146 µM). In data set [6], the MIC is 0.066 ± 0.009 µg/mL (≈ 0.13 µM). Also, the MIC in data set [7] turned out to be 0.017 ± 0.007 µg/mL (≈ 0.0335 µM). For the same compound, in [8], the MIC was more than 50 µg/mL. Besides, in [9], the MIC was more than 50 µg/mL. Besides, in data set [10], the MIC is 8.31 ± 0.52 µg/mL (≈ 16.4 µM). Besides, the MIC in data set [11] is 3.08 µg/mL (≈ 6.07 µM). The MIC in data set [12] amounted to 21.3 µg/mL (≈ 42 µM). Also, the MIC in [13] is 8.23 ± 2.23 µg/mL (≈ 16.2 µM). Moreover, in [14], the MIC was 6.59 ± 0.04 µg/mL (≈ 13 µM). In addition, the MIC in [15] was more than 100 µg/mL. Further, in data set [16], the MIC stood at 43 µg/mL (≈ 84.7 µM). Further, the MIC in data set [17] was less than 0.001 µg/mL.

Consider `C[C@@H](n1ccc2nccn2c1=O)[C@](O)(Cn1cncn1)c1ccc(F)cc1F` [Compound 27, 6-[(1R,2R)-2-(2,4-Difluorophenyl)-2-hydroxy-1-methyl-3-(1H-1,2,4-triazol-1-yl)propyl]imidazo[1,2-c]pyrimidin-5-one], for which the melting point was in the range of 156 to 157 °C. Further, in data set [1], the MIC turned out to be 23 ± 21.1 µg/mL (≈ 59.6 µM). The MIC in data set [2] is 6.03 ± 0.95 µg/mL (≈ 15.6 µM). Moreover, the MIC in data set [10] was 7.29 ± 0.22 µg/mL (≈ 18.9 µM). For the same compound, in data set [13], the MIC came to 6.76 ± 0.1 µg/mL (≈ 17.5 µM). For the same compound, in [18], the 50% inhibitory concentration (IC50) is more than 100 µM. In addition, in data set [14], the MIC was found to be 6.96 ± 1.49 µg/mL (≈ 18 µM). In addition, in [15], the “MIC values against ITRA-resistant isolate carrying M220T mutation (ASFU77), in words” value was “in the micromolar range” and the MIC stood at 6.47 ± 0.03 µg/mL (≈ 16.7 µM). In [17], the MIC was 0.014 ± 0.001 µg/mL (≈ 0.0362 µM).

The melting point is the temperature of the solid-liquid transition. By IC50 is commonly meant the concentration that inhibits the measured activity by half.
